Measured values from ChEMBL document CHEMBL3526102, “Biotransformation of two β-secretase inhibitors including ring opening and contraction of a pyrimidine ring” (Drug Metab Dispos, 2013).
One block for each compound: values may come before it.

Legend:
Hepatocyte [1] = assay: Drug level in human hepatocytes treated with [14C]-AZD3839 at 5 uM after 120 mins by LC-MS analysis; assay type: ADME, cell-based; details: 2 h
Hepatocyte [2] = assay: Drug level in Sprague-Dawley rat hepatocytes treated with [14C]-AZD3839 at 5 uM after 120 mins by LC-MS analysis; assay type: ADME, cell-based; details: 2 h
Plasma = assay: Drug level in bile duct-cannulated Sprague-Dawley rat plasma treated with (S)-1-pyridin-4-yl-4-fluoro-1-(3-(pyrimidin-5-yl)phenyl)-1H-isoindol-3-amine at 30 umol/kg, iv after 6 hrs by LC-MS analysis; assay type: ADME, organism-based; details: in vivo
Liver microsome [3] = assay: Drug level in human liver microsomes treated with (S)-1-pyridin-4-yl-4-fluoro-1-(3-(pyrimidin-5-yl)phenyl)-1H-isoindol-3-amine at 1 uM after 30 mins by LC-MS analysis; assay type: ADME; details: 0.5 h
Cytochrome P450 3A4 = Cytochrome P450 3A4 (Homo sapiens, UniProt P08684); assay: Activity of human recombinant CYP3A4 expressed in insect BTI-TN-5B1-4 cell microsomes assessed as enzyme-mediated drug metabolism treated with (S)-1-pyridin-4-yl-4-fluoro-1-(3-(pyrimidin-5-yl)phenyl)-1H-isoindol-3-amine at 2 uM after 30 mins; assay type: ADME; details: bti-tn-5b1-4, 0.5 h
Liver microsome [4] = assay: Drug level in Sprague-Dawley rat liver microsomes treated with (S)-1-pyridin-4-yl-4-fluoro-1-(3-(pyrimidin-5-yl)phenyl)-1H-isoindol-3-amine at 1 uM after 30 mins by LC-MS analysis; assay type: ADME; details: 0.5 h
Liver = assay: Drug level in Sprague-Dawley rat aroclor 1254-induced liver S9 fraction treated with AZD3839 at 100 uM by LC-MS analysis; assay type: ADME, subcellular; details: s9, 100 µM
Liver microsome [5] = assay: Drug level in Sprague-Dawley rat liver microsomes treated with AZD3839 at 1 uM after 30 mins by LC-MS analysis; assay type: ADME; details: 0.5 h
Hepatocyte [6] = assay: Drug level in New Zealand White rabbit hepatocytes treated with [14C]-AZD3839 at 5 uM after 120 mins by LC-MS analysis; assay type: ADME, cell-based, Oryctolagus cuniculus; details: 2 h
Liver microsome [7] = assay: Drug level in human liver microsomes treated with AZD3839 at 1 uM after 30 mins by LC-MS analysis; assay type: ADME; details: 0.5 h
[8] = Drug level in Sprague-Dawley rat bile treated with [14C]-AZD3839 at 58 umol/kg, po after 48 hrs by LC-MS analysis; assay type: ADME, organism-based; details: in vivo
[9] = Drug excretion in Han Wistar rat urine at 5.8 umol/kg, iv by LC-MS analysis; assay type: ADME, organism-based; details: read-out: Drug excretion
[10] = Drug metabolism in Sprague-Dawley rat hepatocytes assessed as (2S,3S,4S,5R,6S)-6-(5-(3-(3-amino-1-(2-(difluoromethyl)pyridin-4-yl)-4-fluoro-1H-isoindol-1-yl)phenyl)-1H-imidazol-1-yloxy)-3,4,5-trihydroxytetrahydro-2H-pyran-2-carboxylic acid formation at 5 uM after 120 mins by LC-MS analysis; assay type: ADME, cell-based, Hepatocyte
[11] = Drug metabolism in human hepatocytes assessed as 5-(3-(3-amino-1-(2-(difluoromethyl)-1-oxidopyridin-4-yl)-4-fluoro-1H-isoindol-1-yl)phenyl)pyrimidine 1-oxide formation at 5 uM after 120 mins by LC-MS analysis; assay type: ADME, cell-based, Hepatocyte; details: 2 h
[12] = Drug metabolism in human hepatocytes assessed as 1-(3-(3-amino-1-(2-(difluoromethyl)pyridin-4-yl)-4-fluoro-1H-isoindol-1-yl)phenyl)ethane-1,2-diol formation at 5 uM after 120 mins by LC-MS analysis; assay type: ADME, cell-based, Hepatocyte; details: 2 h
[13] = Drug metabolism in human hepatocytes assessed as 5-(3-(3-amino-1-(2-(difluoromethyl)pyridin-4-yl)-4-fluoro-1H-isoindol-1-yl)phenyl)pyrimidin-4(3H)-one formation at 5 uM after 120 mins by LC-MS analysis; assay type: ADME, cell-based, Hepatocyte; details: 2 h
[14] = Drug metabolism in Sprague-Dawley rat hepatocytes assessed as (S)-5-(3-(3-amino-1-(2-(difluoromethyl)pyridin-4-yl)-4-fluoro-1H-isoindol-1-yl)phenyl)pyrimidine 1-oxide formation at 5 uM after 120 mins by LC-MS analysis; assay type: ADME, cell-based, Hepatocyte; details: 2 h
[15] = Drug metabolism in New Zealand White rabbit hepatocytes assessed as (S)-5-(3-(3-amino-1-(2-(difluoromethyl)pyridin-4-yl)-4-fluoro-1H-isoindol-1-yl)phenyl)pyrimidine 1-oxide formation at 5 uM after 120 mins by LC-MS analysis; assay type: ADME, cell-based, Oryctolagus cuniculus, Hepatocyte; details: 2 h
[16] = Drug metabolism in human hepatocytes assessed as (S)-4-(3-amino-4-fluoro-1-(3-(pyrimidin-5-yl)phenyl)-1H-isoindol-1-yl)-2-(difluoromethyl)pyridine 1-oxide formation at 5 uM after 120 mins by LC-MS analysis; assay type: ADME, cell-based, Hepatocyte; details: 2 h
[17] = Drug metabolism in human hepatocytes assessed as 5-(3-(3-amino-1-(2-(difluoromethyl)pyridin-4-yl)-4-fluoro-1H-isoindol-1-yl)phenyl)pyrimidin-4-ol formation at 5 uM after 120 mins by LC-MS analysis; assay type: ADME, cell-based, Hepatocyte; details: 2 h
[18] = Drug metabolism in Sprague-Dawley rat hepatocytes assessed as 5-(3-(3-amino-1-(2-(difluoromethyl)pyridin-4-yl)-4-fluoro-1H-isoindol-1-yl)phenyl)pyrimidin-4-ol formation at 5 uM after 120 mins by LC-MS analysis; assay type: ADME, cell-based, Hepatocyte; details: 2 h
[19] = Drug metabolism in human hepatocytes assessed as (S)-5-(3-(3-amino-1-(2-(difluoromethyl)pyridin-4-yl)-4-fluoro-1H-isoindol-1-yl)phenyl)pyrimidine 1-oxide formation at 5 uM after 120 mins by LC-MS analysis; assay type: ADME, cell-based, Hepatocyte; details: 2 h
[20] = Drug metabolism in New Zealand White rabbit hepatocytes assessed as 1-(3-(3-amino-1-(2-(difluoromethyl)pyridin-4-yl)-4-fluoro-1H-isoindol-1-yl)phenyl)ethane-1,2-diol formation at 5 uM after 120 mins by LC-MS analysis; assay type: ADME, cell-based, Oryctolagus cuniculus, Hepatocyte; details: 2 h
[21] = Drug metabolism in Sprague-Dawley rat hepatocytes assessed as (S)-4-(3-amino-4-fluoro-1-(3-(pyrimidin-5-yl)phenyl)-1H-isoindol-1-yl)-2-(difluoromethyl)pyridine 1-oxide formation at 5 uM after 120 mins by LC-MS analysis; assay type: ADME, cell-based, Hepatocyte; details: 2 h
[22] = Drug metabolism in Sprague-Dawley rat bile assessed as 5-(3-(3-amino-1-(2-(difluoromethyl)pyridin-4-yl)-4-fluoro-1H-isoindol-1-yl)phenyl)-1H-imidazol-1-ol formation at 58 umol/kg, po after 48 hrs by LC-MS analysis; assay type: ADME, organism-based; details: in vivo
[23] = Drug metabolism in Sprague-Dawley rat hepatocytes assessed as 5-(3-(3-amino-1-(2-(difluoromethyl)-1-oxidopyridin-4-yl)-4-fluoro-1H-isoindol-1-yl)phenyl)pyrimidine 1-oxide formation at 5 uM after 120 mins by LC-MS analysis; assay type: ADME, cell-based, Hepatocyte; details: 2 h
[24] = Drug excretion in Han Wistar rat feces at 5.8 umol/kg, iv by LC-MS analysis; assay type: ADME, organism-based; details: faeces, read-out: Drug excretion
[25] = Drug metabolism in Sprague-Dawley rat bile assessed as (2S,3S,4S,5R,6S)-6-(5-(3-(3-amino-1-(2-(difluoromethyl)pyridin-4-yl)-4-fluoro-1H-isoindol-1-yl)phenyl)-1H-imidazol-1-yloxy)-3,4,5-trihydroxytetrahydro-2H-pyran-2-carboxylic acid formation at 58 umol/kg, po after 48 hrs by LC-MS analysis; assay type: ADME, organism-based; details: in vivo
Liver microsome [26] = assay: Drug metabolism in Sprague-Dawley rat liver microsomes assessed as (S)-5-(3-(3-amino-1-(2-(difluoromethyl)pyridin-4-yl)-4-fluoro-1H-isoindol-1-yl)phenyl)pyrimidine 1-oxide formation at 1 uM after 30 mins by LC-MS analysis; assay type: ADME; details: 0.5 h
Liver microsome [27] = assay: Drug metabolism in human liver microsomes assessed as (S)-4-(3-amino-4-fluoro-1-(3-(pyrimidin-5-yl)phenyl)-1H-isoindol-1-yl)-2-(difluoromethyl)pyridine 1-oxide formation at 1 uM after 30 mins by LC-MS analysis; assay type: ADME; details: 0.5 h
Liver microsome [28] = assay: Drug metabolism in Sprague-Dawley rat liver microsomes assessed as (S)-4-(3-amino-4-fluoro-1-(3-(pyrimidin-5-yl)phenyl)-1H-isoindol-1-yl)-2-(difluoromethyl)pyridine 1-oxide formation at 1 uM after 30 mins by LC-MS analysis; assay type: ADME; details: 0.5 h
[29] = Drug metabolism in Sprague-Dawley rat aroclor 1254-induced liver S9 fraction assessed as 5-(3-(3-amino-1-(2-(difluoromethyl)pyridin-4-yl)-4-fluoro-1H-isoindol-1-yl)phenyl)pyrimidin-4(3H)-one formation at 100 uM by LC-MS analysis; assay type: ADME, subcellular; details: s9, 100 µM
[30] = Drug metabolism in Sprague-Dawley rat aroclor 1254-induced liver S9 fraction assessed as (S)-5-(3-(3-amino-1-(2-(difluoromethyl)pyridin-4-yl)-4-fluoro-1H-isoindol-1-yl)phenyl)pyrimidine 1-oxide formation at 100 uM by LC-MS analysis; assay type: ADME, subcellular; details: s9, 100 µM
[31] = Drug metabolism in Sprague-Dawley rat aroclor 1254-induced liver S9 fraction assessed as (S)-4-(3-amino-4-fluoro-1-(3-(pyrimidin-5-yl)phenyl)-1H-isoindol-1-yl)-2-(difluoromethyl)pyridine 1-oxide formation at 100 uM by LC-MS analysis; assay type: ADME, subcellular; details: s9, 100 µM
Liver microsome [32] = assay: Drug metabolism in human liver microsomes assessed as (S)-5-(3-(3-amino-1-(2-(difluoromethyl)pyridin-4-yl)-4-fluoro-1H-isoindol-1-yl)phenyl)pyrimidine 1-oxide formation at 1 uM after 30 mins by LC-MS analysis; assay type: ADME; details: 0.5 h
[33] = Drug excretion in Sprague-Dawley rat urine at 30 umol/kg, iv after 24 hrs by LC-MS analysis; assay type: ADME, organism-based; details: read-out: Drug excretion
[34] = Drug excretion in Sprague-Dawley rat feces at 30 umol/kg, iv after 48 hrs by LC-MS analysis; assay type: ADME, organism-based; details: faeces, read-out: Drug excretion
[35] = Drug excretion in bile duct-cannulated Sprague-Dawley rat bile at 30 umol/kg, iv after 6 hrs by LC-MS analysis; assay type: ADME, organism-based; details: read-out: Drug excretion

Cytochrome P450 3A4, sequence (P08684 whole entry): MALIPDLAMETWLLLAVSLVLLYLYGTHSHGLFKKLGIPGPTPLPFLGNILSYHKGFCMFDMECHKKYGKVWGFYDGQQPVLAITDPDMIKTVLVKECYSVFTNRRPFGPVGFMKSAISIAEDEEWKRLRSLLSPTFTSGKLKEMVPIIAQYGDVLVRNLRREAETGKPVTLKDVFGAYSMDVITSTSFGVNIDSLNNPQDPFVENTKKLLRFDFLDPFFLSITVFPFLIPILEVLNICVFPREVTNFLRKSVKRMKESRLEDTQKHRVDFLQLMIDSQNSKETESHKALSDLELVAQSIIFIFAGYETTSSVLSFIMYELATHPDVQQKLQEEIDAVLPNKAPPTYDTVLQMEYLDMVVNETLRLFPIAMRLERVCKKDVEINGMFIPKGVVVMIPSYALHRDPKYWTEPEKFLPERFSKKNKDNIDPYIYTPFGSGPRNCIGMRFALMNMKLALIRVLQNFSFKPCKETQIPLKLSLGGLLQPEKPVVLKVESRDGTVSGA

SMILES: NC1=NC(c2cccc(-c3cnc[n+]([O-])c3)c2)(c2cc[n+]([O-])c(C(F)F)c2)c2cccc(F)c21 (stereo not given)
Drug metabolism (Hepatocyte [1]): metabolite_detected
Drug metabolism (Hepatocyte [2]): metabolite_detected

SMILES: NC1=NC(c2cc[n+]([O-])cc2)(c2cccc(-c3cncnc3)c2)c2cccc(F)c21 (stereo not given)
Drug metabolism (Plasma): metabolite_detected
Drug metabolism (Liver microsome [3]): metabolite_detected
Drug metabolism (Cytochrome P450 3A4): metabolite_detected
Drug metabolism (Liver microsome [4]): metabolite_detected

SMILES: NC1=NC(c2cccc(C(O)CO)c2)(c2ccnc(C(F)F)c2)c2cccc(F)c21 (stereo not given)
Drug metabolism (Hepatocyte [1]): metabolite_detected
Drug metabolism (Hepatocyte [6]): metabolite_detected

SMILES: NC1=N[C@](c2ccnc(C(F)F)c2)([14c]2[14cH][14cH][14cH][14c](-c3cncnc3)[14cH]2)c2cccc(F)c21.O=C(O)/C=C/C(=O)O
dose excreted [9]: < 1%
Drug metabolism [10]: metabolite_detected
Drug metabolism [11]: metabolite_detected
Drug metabolism [12]: metabolite_detected
Drug metabolism [13]: metabolite_detected
Drug metabolism [14]: metabolite_detected
Drug metabolism [15]: metabolite_detected
Drug metabolism [16]: metabolite_detected
Drug metabolism [17]: metabolite_detected
Drug metabolism [18]: metabolite_detected
Drug metabolism [19]: metabolite_detected
Drug metabolism [20]: metabolite_detected
Drug metabolism [21]: metabolite_detected
Drug metabolism [22]: metabolite_detected
Drug metabolism [23]: metabolite_detected
dose excreted [24]: > 90%
Drug metabolism [25]: metabolite_detected

SMILES: NC1=NC(c2cc[n+]([O-])cc2)(c2cccc(-c3cnc[n+]([O-])c3)c2)c2cccc(F)c21 (stereo not given)
Drug metabolism (Plasma): metabolite_detected

More lines, now with the values ahead:

Drug metabolism (Hepatocyte [1]): metabolite_detected
Drug metabolism (Liver): metabolite_detected
Drug metabolism (Liver microsome [5]): metabolite_detected
Drug metabolism (Hepatocyte [6]): metabolite_detected
Drug metabolism (Liver microsome [7]): metabolite_detected
Drug metabolism (Hepatocyte [2]): metabolite_detected
SMILES: NC1=N[C@@](c2cccc(-c3cnc[n+]([O-])c3)c2)(c2ccnc(C(F)F)c2)c2cccc(F)c21

Drug metabolism (Hepatocyte [1]): metabolite_detected
Drug metabolism (Liver): metabolite_detected
Drug metabolism (Liver microsome [5]): metabolite_detected
Drug metabolism (Liver microsome [7]): metabolite_detected
Drug metabolism (Hepatocyte [2]): metabolite_detected
SMILES: NC1=N[C@@](c2cccc(-c3cncnc3)c2)(c2cc[n+]([O-])c(C(F)F)c2)c2cccc(F)c21

Drug metabolism [8]: metabolite_detected
SMILES: NC1=NC(c2cccc(-c3cncn3O)c2)(c2ccnc(C(F)F)c2)c2cccc(F)c21 (stereo not given)

Drug metabolism [8]: metabolite_detected
Drug metabolism (Hepatocyte [2]): metabolite_detected
SMILES: NC1=NC(c2cccc(-c3cncn3O[C@@H]3O[C@H](C(=O)O)[C@@H](O)[C@H](O)[C@H]3O)c2)(c2ccnc(C(F)F)c2)c2cccc(F)c21 (stereo not given in full)

Drug metabolism (Liver microsome [26]): metabolite_detected
Drug metabolism (Liver microsome [27]): metabolite_detected
Drug metabolism (Liver microsome [28]): metabolite_detected
Drug metabolism [29]: metabolite_detected
Drug metabolism [30]: metabolite_detected
Drug metabolism [31]: metabolite_detected
Drug metabolism (Liver microsome [32]): metabolite_detected
SMILES: NC1=N[C@@](c2cccc(-c3cncnc3)c2)(c2ccnc(C(F)F)c2)c2cccc(F)c21.O=C(O)/C=C/C(=O)O

dose excreted at 24 h [33]: < 10%
dose excreted at 48 h [34]: > 90%
dose excreted at 6 h [35]: 55%
SMILES: [3H]c1cc(-c2c([3H])nc([3H])nc2[3H])cc([C@@]2(c3cc([3H])nc([3H])c3)N=C(N)c3c(F)cccc32)c1
